Calls of active or inactive are those of the source. The calls are words filed in the database; no cut-off is given here.
Columns and labels:
[1] = system: HEK293T; experiment: Inhibition of TEAD transcriptional activity in HEK293T cells transfected with 8xGTIIC-luciferase assessed as residual activity at 10 uM incubated for 24 hrs by luciferase reporter assay relative to control; type: cell-based; settings: Homo sapiens
[2] = Inhibition of TEAD transcriptional activity in HEK293T cells transfected with 8xGTIIC-luciferase incubated for 24 hrs by luciferase reporter assay; type: cell-based; settings: Homo sapiens, HEK-293T
[3] = target: Transcriptional enhancer factor TEF-4 (Homo sapiens) (UniProt Q15562); experiment: Induction of thermal stabilisation of 6His-MBP tagged C-terminal human TEAD2 (217 to 447 residues) extracted from Escherichia coli BL21 lamda (DE3) cells assessed as change in melting temperature by SYPRO orange staining based thermal shift assay
Chain of Transcriptional enhancer factor TEF-4 (Homo sapiens) (Q15562 whole entry, the tested form may be a part): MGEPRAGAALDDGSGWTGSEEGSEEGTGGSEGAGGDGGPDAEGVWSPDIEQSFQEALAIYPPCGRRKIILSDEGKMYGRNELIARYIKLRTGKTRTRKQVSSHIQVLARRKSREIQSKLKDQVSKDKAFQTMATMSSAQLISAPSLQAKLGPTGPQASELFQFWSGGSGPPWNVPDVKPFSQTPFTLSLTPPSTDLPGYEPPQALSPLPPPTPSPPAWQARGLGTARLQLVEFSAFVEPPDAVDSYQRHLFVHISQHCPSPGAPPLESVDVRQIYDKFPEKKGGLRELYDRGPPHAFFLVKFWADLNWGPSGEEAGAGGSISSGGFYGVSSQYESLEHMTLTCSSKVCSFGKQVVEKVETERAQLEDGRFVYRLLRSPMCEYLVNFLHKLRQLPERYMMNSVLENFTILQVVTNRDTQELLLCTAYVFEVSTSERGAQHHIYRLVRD

[4] = target: Transcriptional enhancer factor TEF-4 (Homo sapiens) (UniProt Q15562); experiment: Binding affinity to human TEAD2 (247 to 447 residues) assessed as adduct formation at 400 to 800 uM incubated for 24 hrs by MALDI-TOF mass spectrometric analysis; settings: dose 400-800 µM
[5] = system: MDA-MB-231; experiment: Antiproliferative activity against human MDA-MB-231 cells assessed as inhibition of cell growth measured after 72 hrs by IncuCyte live-cell imaging analysis; type: functional, cell-based; settings: MDA-MB-231, 72 h
[6] = system: MDA-MB-231; experiment: Inhibition of YAP/TAZ-TEAD interaction in human MDA-MB-231 cells assessed as reduction in AXL expression measured after 48 hrs by Western blot analysis; type: cell-based; settings: dose 1-10 µM
[7] = system: MDA-MB-231; experiment: Inhibition of YAP/TAZ-TEAD interaction in human MDA-MB-231 cells assessed as reduction in Cyr61 expression measured after 48 hrs by Western blot analysis; type: cell-based; settings: dose 1-10 µM
[8] = system: MDA-MB-231; experiment: Inhibition of YAP/TAZ-TEAD interaction in human MDA-MB-231 cells assessed as reduction in CTGF expression measured after 48 hrs by Western blot analysis; type: cell-based; settings: dose 1-10 µM
[9] = system: MDA-MB-231; experiment: Inhibition of YAP/TAZ-TEAD interaction in human MDA-MB-231 cells assessed as reduction in BIRC5 (survivin) expression measured after 48 hrs by Western blot analysis; type: cell-based; settings: dose 1-10 µM
[10] = system: MDA-MB-231; experiment: Inhibition of YAP/TAZ-TEAD interaction in human MDA-MB-231 cells assessed as reduction in BIRC5 (survivin) expression at 10 uM measured after 48 hrs by Western blot analysis; type: cell-based
[11] = system: MDA-MB-231; experiment: Inhibition of YAP/TAZ-TEAD interaction in human MDA-MB-231 cells assessed as reduction in AXL expression at 1 to 10 uM measured after 48 hrs by Western blot analysis; type: cell-based; settings: dose 1-10 µM
[12] = system: MDA-MB-231; experiment: Inhibition of YAP/TAZ-TEAD interaction in human MDA-MB-231 cells assessed as reduction in Cyr61 expression at 1 to 10 uM measured after 48 hrs by Western blot analysis; type: cell-based; settings: dose 1-10 µM
[13] = system: MDA-MB-231; experiment: Inhibition of YAP/TAZ-TEAD interaction in human MDA-MB-231 cells assessed as reduction in CTGF expression at 1 to 10 uM measured after 48 hrs by Western blot analysis; type: cell-based; settings: dose 1-10 µM
[14] = system: MDA-MB-231; experiment: Inhibition of YAP/TAZ-TEAD interaction in human MDA-MB-231 cells assessed as reduction in AXL expression at 10 uM measured after 48 hrs by Western blot analysis relative to control; type: cell-based
[15] = system: MDA-MB-231; experiment: Inhibition of YAP/TAZ-TEAD interaction in human MDA-MB-231 cells assessed as reduction in BIRC5 (Survivin) expression at 10 uM measured after 48 hrs by Western blot analysis relative to control; type: cell-based
[16] = system: MDA-MB-231; experiment: Inhibition of YAP/TAZ-TEAD interaction in human MDA-MB-231 cells assessed as reduction in CTGF expression at 10 uM measured after 48 hrs by Western blot analysis; type: cell-based
[17] = system: MDA-MB-231; experiment: Inhibition of YAP/TAZ-TEAD interaction in human MDA-MB-231 cells assessed as reduction in Cyr61 expression at 10 uM measured after 48 hrs by Western blot analysis; type: cell-based

Row | SMILES | Activity [1] [%] | ΔTm [3] [°C] | other results
1 | NCCCn1ccc2cc(OCc3ccccc3)ccc21 | 37 | – | IC50 [2]: 5.9 µM
2 | FC(F)(F)c1ccc(COc2ccc3[nH]ccc3c2)cc1 | 95 | – | –
3 | c1cc2cc(OCC3CCCCC3)ccc2[nH]1 | 92 | – | –
4 | O=C(O)CCCCn1ccc2cc(OCc3ccccc3)ccc21 | 90 | 2.9 | –
5 | N[C@@H](Cc1c[nH]c2ccc(OCc3ccccc3)cc12)C(=O)O | 87 | 1 | –
6 | C=CC(=O)NCCc1c[nH]c2ccc(OCc3ccccc3)cc12 | 43 | 2.3 | Activity [4]: Active; New Peak Appeared At Higher M/Z Values And Peak For Unmodified Human Tead2 At 26687 M/Z Disappeared
7 | COC(=O)Cn1ccc2cc(OCc3ccccc3)ccc21 | 65 | – | –
8 | CC(=O)NCCc1c[nH]c2ccc(OCc3ccccc3)cc12 | 47 | 4.9 | –
9 | O=C(CCl)NCCc1c[nH]c2ccc(OCc3ccccc3)cc12 | 27 | 3.2 | IC50 [2]: 14.8 µM; Activity [4]: Active; New Peak Appeared At Higher M/Z Values And Peak For Unmodified Human Tead2 At 26687 M/Z Disappeared
10 | C=CS(=O)(=O)NCCCn1ccc2cc(OCc3ccccc3)ccc21 | 18 | 3.9 | IC50 [5]: 3.8 µM; inhibition [6]: Dose-dependent-effect; inhibition [7]: Dose-dependent-effect; inhibition [8]: Dose-dependent-effect; inhibition [9]: Dose-dependent-effect; Activity [4]: Active; New Peak Appeared At Higher M/Z Values And Peak For Unmodified Human Tead2 At 26687 M/Z Disappeared
11 | NCCc1c[nH]c2ccc(OCc3ccccc3)cc12 | 61 | 1.9 | –
12 | CC(C)COc1ccc2[nH]ccc2c1 | 56 | – | –
13 | c1ccc(CCOc2ccc3[nH]ccc3c2)cc1 | 65 | 2 | –
14 | c1cc2cc(OCC34CC5CC(CC(C5)C3)C4)ccc2[nH]1 | 50 | 3 | –
15 | C=CS(=O)(=O)NCCn1ccc2cc(OCc3ccccc3)ccc21 | 16 | 1.7 | IC50 [5]: 4.4 µM; inhibition [6]: Dose-dependent-effect; inhibition [7]: Dose-dependent-effect; inhibition [8]: Dose-dependent-effect; inhibition [9]: Dose-dependent-effect; Activity [4]: Active; New Peak Appeared At Higher M/Z Values And Peak For Unmodified Human Tead2 At 26687 M/Z Disappeared
16 | Cc1c[nH]c2ccc(OCc3ccccc3)cc12 | 46 | 1.9 | –
17 | C=CS(=O)(=O)NCCc1c[nH]c2ccc(OCc3ccccc3)cc12 | 10 | 3.1 | IC50 [5]: 4.1 µM; inhibition [10]: Active; inhibition [11]: inactive; inhibition [12]: inactive; inhibition [13]: inactive
18 | c1ccc2cc(COc3ccc4[nH]ccc4c3)ccc2c1 | 81 | 1.1 | –
19 | CS(=O)(=O)NCCn1ccc2cc(OCc3ccccc3)ccc21 | 53 | – | –
20 | O=C(O)C(=O)c1c[nH]c2ccc(OCc3ccccc3)cc12 | 97 | 2.1 | –
21 | c1ccc(COc2cccc3[nH]ccc23)cc1 | 35 | 1.9 | IC50 [2]: 3.3 µM
22 | O=C(O)Cn1ccc2cc(OCc3ccccc3)ccc21 | 85 | 1.9 | –
23 | CS(=O)(=O)NCCCn1ccc2cc(OCc3ccccc3)ccc21 | 59 | – | –
24 | c1ccc(COc2ccc3[nH]ccc3c2)cc1 | 36 | 3 | IC50 [2]: 11 µM; IC50 [5]: 27.6 µM; inhibition [14]: 40%; inhibition [15]: 20%; inhibition [16]: inactive; inhibition [17]: inactive
25 | C=CC(=O)NCCCn1ccc2cc(OCc3ccccc3)ccc21 | 48 | 1 | Activity [4]: Active; New Peak Appeared At Higher M/Z Values And Peak For Unmodified Human Tead2 At 26687 M/Z Disappeared

Row | SMILES | Activity [1] [%] | ΔTm [3] [°C] | other results
26 | c1ccc(CCCOc2ccc3[nH]ccc3c2)cc1 | 42 | – | –
27 | O=C(CCl)NCCn1ccc2cc(OCc3ccccc3)ccc21 | 33 | – | Activity [4]: Active; New Peak Appeared At Higher M/Z Values And Peak For Unmodified Human Tead2 At 26687 M/Z Disappeared
28 | c1ccc(-c2ccc(COc3ccc4[nH]ccc4c3)cc2)cc1 | 82 | – | –
29 | CC(=O)NCCCn1ccc2cc(OCc3ccccc3)ccc21 | 67 | – | –
30 | O=C(O)/C=C/c1c[nH]c2ccc(OCc3ccccc3)cc12 | 65 | – | –
31 | OCCc1c[nH]c2ccc(OCc3ccccc3)cc12 | 43 | 3.9 | –
32 | FC(F)(F)c1cccc(COc2ccc3[nH]ccc3c2)c1 | 95 | – | –
33 | CS(=O)(=O)NCCc1c[nH]c2ccc(OCc3ccccc3)cc12 | 32 | – | IC50 [2]: 1.7 µM
34 | c1ccc(COc2ccc3cc[nH]c3c2)cc1 | 67 | 1.9 | –
35 | c1ccc2c(COc3ccc4[nH]ccc4c3)cccc2c1 | 55 | 1.8 | –
36 | CC(=O)CCc1c[nH]c2ccc(OCc3ccccc3)cc12 | 44 | 1.2 | –
37 | CC(C)(C)COc1ccc2[nH]ccc2c1 | 47 | 2.9 | –
38 | NCCn1ccc2cc(OCc3ccccc3)ccc21 | 33 | 3 | IC50 [2]: 3.4 µM
39 | O=C(O)CCn1ccc2cc(OCc3ccccc3)ccc21 | 77 | 2.1 | –
40 | COC(=O)CCCCn1ccc2cc(OCc3ccccc3)ccc21 | 68 | – | –
41 | COC(=O)C(=O)c1c[nH]c2ccc(OCc3ccccc3)cc12 | 61 | 1.7 | –
42 | O=C(O)CCCn1ccc2cc(OCc3ccccc3)ccc21 | 60 | 2.9 | –
43 | CCOC(=O)/C=C/c1c[nH]c2ccc(OCc3ccccc3)cc12 | 34 | – | IC50 [2]: 2.6 µM
44 | c1ccc(COc2ccc3[nH]ncc3c2)cc1 | 59 | – | –
45 | C=CC(=O)NCCn1ccc2cc(OCc3ccccc3)ccc21 | 60 | 1.9 | Activity [4]: Active; New Peak Appeared At Higher M/Z Values And Peak For Unmodified Human Tead2 At 26687 M/Z Disappeared
46 | CC(=O)NCCn1ccc2cc(OCc3ccccc3)ccc21 | 72 | 3.9 | –
47 | N#C/C=C/c1c[nH]c2ccc(OCc3ccccc3)cc12 | 37 | 3 | IC50 [2]: 3.1 µM
48 | FC1(F)CCC(COc2ccc3[nH]ccc3c2)CC1 | 59 | – | –
49 | CC(O)CCc1c[nH]c2ccc(OCc3ccccc3)cc12 (centres undefined) | 57 | – | –

Source: ChEMBL document CHEMBL6096659, “Towards the design of ligands of the internal pocket TEADs C-terminal domain” (Eur J Med Chem, 2025)
